Source: patent US10206401B2, “Pyridine compounds for controlling invertebrate pests II” (BASF SE, priority 2010, dated 2019)

What was measured:
Type in all cases: in vivo
[1] = test system: Vetch Aphid (Megoura viciae); assay: Vetch aphid, bean leaf disks in microtiterplates; details: foliar, 144 h, test solution 2500 mg/L, bean leaf disks sprayed, 6 days
Protocol: II.4 Vetch Aphid (Megoura viciae)
The active compounds were formulated in 1:3 (vol/vol) DMSO:water with different concentrations of formulated compounds.
Bean leaf disks were placed into microtiterplates filled with 0.8% agar-agar and 2.5 ppm OPUS™. The leaf disks were sprayed with 2.5 μl of the test solution and 5 to 8 adult aphids were placed into the microtiterplates which were then closed and kept at 23±1° C. and 50±5% relative humidity under fluorescent light for 6 days. Mortality was assessed on the basis of vital, reproduced aphids. Aphid mortality and fecundity was then visually assessed.

[2] = test system: Cowpea Aphid (Aphis craccivora); assay: Cowpea aphid, potted cowpea plants sprayed; details: population reduction assessed after 24, 72 and 120 hours, read-out: mortality in comparison with untreated controls
Protocol: II.3 Cowpea Aphid (Aphis craccivora)
The active compounds were formulated in 50:50 (vol/vol) acetone:water. The test solution was prepared at the day of use.
Potted cowpea plants colonized with 100-150 aphids of various stages were sprayed after the pest population had been recorded. Population reduction was assesed after 24, 72, and 120 hours.

[3] = test system: Cotton Aphid (Aphis gossypii, Mixed Life Stages); assay: Cotton aphid, method a (cotyledon dip); details: 120 h, cotton cotyledons dipped, after 5 days, read-out: mortality in comparison with untreated controls
Text: II.1 Cotton Aphid (Aphis gossypii, Mixed Life Stages)
The active compounds were formulated in 50:50 (vol/vol) acetone:water and 100 ppm Kinetica™ surfactant.
Cotton plants at the cotyledon stage (one plant per pot) were infested by placing a heavily infested leaf from the main colony on top of each cotyledon. The aphids were allowed to transfer to the host plant overnight, and the leaf used to transfer the aphids was removed. The cotyledons were dipped in the test solution and allowed to dry. After 5 days, mortality counts were made.

Q: `Cc1c(C(=O)Nc2cccnc2)nnn1Cc1ccccc1` [Example 2, 1-Benzyl-5-methyl-1H-[1,2,3]triazole-4-carboxylic acid pyridin-3-ylamide] was tested. Which mortality at 2500 µg/mL [1] did it give?
A: ≥ 90%

Q: What about the mortality at 300 ppm [2] of the same compound?
A: ≥ 90%

Q: And the mortality at 300 ppm [3]?
A: ≥ 75%
